These results are taken from patent US20080146511A1, “SELECTION METHOD OF PEPTIDES, PEPTIDES, METHOD AND KIT OF INFECTION IDENTIFICATION BY MYCOBACTERIUM LEPRAE, PHARMACEUTICAL OR IMMUNOLOGICAL COMPOSITIONS CONTAINING PEPTIDES OF MYCOBACTERIUM LEPRAE OR SEQUENCES FUNCTIONALLY EQUIVALENT” (Fundacao Oswaldo Cruz - FIOCRUZ, priority 2006, published 2008).

In the assay the test system is PBMC (peripheral blood mononuclear cells). Type of assay: cell-based, human. Details: key to IFN-γ response specificity mark (asterisk): *: Peptides that induced response in leprosy patients only, or contact groups (but not in TB or EC groups) appear with an asterisk. Conditions: for specificity of IFN-γ response (PB and HC versus TB, EC, NEC) / IFN-γ response specificity mark (asterisk): PBMC, day 5; for specificity of IFN-γ response (PB and HC versus TB, EC, NEC) / IFN-γ responses in groups TB and EC: 10 μg/ml; for IFN-γ response specificity mark (asterisk): peptide 10 μg/ml, leprosy patients/contacts vs TB and EC groups; for IFN-γ responses in groups TB and EC: PBMC of TB patients and endemic controls, day 5, cutoff 125 pg/ml; for comparison of IFN-γ levels between groups (ANOVA, Tukey post hoc): PB, MB, HC, TB, EC.

Entries after “also recorded” stand apart in the source; their conditions may differ.

Take “AAALEQLLGQTADVA [p51, M. leprae ML1057 aa 54-68]”: the “specificity of IFN-γ response (PB and HC versus TB, EC, NEC)” value was “specific, inducing good responses in groups PB and HC, and no response in groups TB, EC or NEC”; the “IFN-γ response specificity mark (asterisk)” value was “p51*”.

On to “AILYRKIHGQDPAER [p60, M. leprae ML0398c aa 288-302]”, for which the “IFN-γ responses in groups TB and EC” value was “induced responses in individuals in groups TB and EC”.

On to “DAEWLKLTSLGLRPR [p73, M. leprae ML1829 aa 108-122]”, for which the “IFN-γ response specificity mark (asterisk)” value was “p73*”.

With “DATFQVIFSQHVHLS [p83, M. leprae ML0394c aa 97-111]”, the “IFN-γ response specificity mark (asterisk)” value is recorded as “p83*”.

In the case of “DDFLSLQRSISPNSY [p44, M. leprae ML0126 aa 251-265]”, the “IFN-γ response specificity mark (asterisk)” value was “p44*”.

In the case of “DDIWRTLASAVITGN [p88, M. leprae ML1189c aa 55-69]”, the “IFN-γ response specificity mark (asterisk)” value is given as “p88*”.

On to “DSTDTTDWSTAMTDA [p77, M. leprae ML2703 trxB aa 331-335]”, for which the “IFN-γ response specificity mark (asterisk)” value is given as “p77*”.

Take “EAVLLRLDGTTLEVE [p65, M. leprae ML1419c aa 108-122]”: the “specificity of IFN-γ response (PB and HC versus TB, EC, NEC)” value is “specific, inducing good responses in groups PB and HC, and no response in groups TB, EC or NEC”; the “IFN-γ response specificity mark (asterisk)” value is on record as “p65*”.

As for “FDEYRAMFALSAMDL [p56, M. leprae ML0308 aa 17-31]”, the “IFN-γ response specificity mark (asterisk)” value is “p56*”.

On to “GDVWKSIVHLRSTRH [p81, M. leprae ML0126 aa 180-194]”, for which the “IFN-γ response specificity mark (asterisk)” value was “p81*”.

Consider “GINLPKDELTAFGRK [p63, M. leprae ML0757c aa 6-20]”, for which the “IFN-γ response specificity mark (asterisk)” value is listed as “p63*”.

On to “GMDVGKVEALKIDGD [p93, M. leprae ML2591 mce1C aa 62-76]”, for which the “IFN-γ responses in groups TB and EC” value was “most frequent responses in groups EC or TB”.

On to “GNAMTTLGGRGISVV [p79, M. leprae ML0098 fbpC aa 84-98]”, for which the “IFN-γ responses in groups TB and EC” value was “induced responses in individuals in groups TB and EC; also recorded: most frequent responses in groups EC or TB”.

Consider “GRYYAEINSAKMYFG [p49, M. leprae ML1057 aa 10-24]”, for which the “IFN-γ response specificity mark (asterisk)” value is on record as “p49*”.

As to “KKRLTLLSGAMARRA [p82, M. leprae ML0394c aa 141-155]”, the “IFN-γ response specificity mark (asterisk)” value is “p82*”.

Turning to “LATVQYDDRRRFTKE [p91, M. leprae ML2347 aa 301-315]”, the “capacity to discriminate PB patients from exposed healthy individuals (HC)” value (“capacity to discriminate PB patients” below) was “discriminate individuals with known infection by Mycobacterium leprae (patients PB) from those individuals exposed to said microorganism, but healthy”; the “comparison of IFN-γ levels between groups (ANOVA, Tukey post hoc)” value (from here on “comparison”) is on record as “induced the same kind of response”; the “IFN-γ response specificity mark (asterisk)” value is recorded as “p91*”.

“LDDFLSLQRSISPNS [p42, M. leprae ML0126 aa 250-264]”: the “IFN-γ response specificity mark (asterisk)” value is “p42*”.

In the case of “LDIYTTLARDMAAIP [p71, M. leprae ML1553 proS aa 180-194]”, the “IFN-γ response specificity mark (asterisk)” value was “p71*”.

Take “LILGLLPAI [p61, M. leprae ML0398c aa 16-24]”: the “specificity of IFN-γ response (PB and HC versus TB, EC, NEC)” value is reported as “more specific than longer 15-mer peptide”; the “IFN-γ response specificity mark (asterisk)” value was “p61*”.

Turning to “LLEEGVIVL [p68, M. leprae ML1419c aa 267-275]”, the “capacity to discriminate PB patients” value is given as “discriminate individuals with known infection by Mycobacterium leprae (patients PB) from those individuals exposed to said microorganism, but healthy”; the “comparison” value is “induced the same kind of response”; the “IFN-γ response specificity mark (asterisk)” value is recorded as “p68*”.

As for “LNQLVSLVKQIFVQQ [p47, M. leprae ML0394c aa 73-87]”, the “IFN-γ response specificity mark (asterisk)” value is given as “p47*”.

On to “LQAYSNLFGRTSAMQ [p92, M. leprae ML2452c aa 28-42]”, for which the “capacity to discriminate PB patients” value is on record as “discriminate individuals with known infection by Mycobacterium leprae (patients PB) from those individuals exposed to said microorganism, but healthy”; the “comparison” value is listed as “induced the same kind of response”; the “IFN-γ response specificity mark (asterisk)” value is given as “p92*”.

Turning to “LQPYRLLRGGDSEYW [p75, M. leprae ML2177c aa 169-183]”, the “capacity to discriminate PB patients” value was “discriminate individuals with known infection by Mycobacterium leprae (patients PB) from those individuals exposed to said microorganism, but healthy”; the “comparison” value is listed as “significantly higher in HC”; the “IFN-γ response specificity mark (asterisk)” value is given as “p75*”.

Take “LTVVVKQRSKAFRPS [p39, M. leprae ML0008c aa 24-38]”: the “IFN-γ response specificity mark (asterisk)” value was “p39*”.

For “MATIRTVRNLKLCNP [p37, M. leprae ML0008c aa 1-15]”, the “IFN-γ responses in groups TB and EC” value is “induced unexpected responses in groups EC or TB”.

As for “MQEYRGLTSHTPCCR [p70, M. leprae ML1420 aa 93-107]”, the “IFN-γ response specificity mark (asterisk)” value is listed as “p70*”.

Regarding “NHAVSSDFKTRSTNT [p54, M. leprae ML2567 aa 72-86]”, the “IFN-γ response specificity mark (asterisk)” value is on record as “p54*”.

Turning to “QLLGQTADV [p52, M. leprae ML1057 aa 59-67]”, the “specificity of IFN-γ response (PB and HC versus TB, EC, NEC)” value is “specific, inducing good responses in groups PB and HC, and no response in groups TB, EC or NEC”; the “IFN-γ response specificity mark (asterisk)” value was “p52*”.

With “QLMYLIEITSETKAL [p48, M. leprae ML0394c aa 22-36]”, the “IFN-γ response specificity mark (asterisk)” value is reported as “p48*”.

As to “QVIFRDLTTQKAAEE [p66, M. leprae ML1419c aa 137-151]”, the “IFN-γ response specificity mark (asterisk)” value was “p66*”.

On to “RLDGTTLEV [p69, M. leprae ML1419c aa 113-121]”, for which the “comparison” value is “significantly higher in HC (p=0.02) and in PB (p=0.01)”; the “specificity of IFN-γ response (PB and HC versus TB, EC, NEC)” value is “specific, inducing good responses in groups PB and HC, and no response in groups TB, EC or NEC”; the “IFN-γ response specificity mark (asterisk)” value is listed as “p69*”.

As to “RRTVKILRPLPSNIT [p53, M. leprae ML2567 aa 95-109]”, the “IFN-γ response specificity mark (asterisk)” value is reported as “p53*”.

Take “RVSYGSECRSGNCLR [p40, M. leprae ML0008c aa 107-121]”: the “IFN-γ response specificity mark (asterisk)” value is reported as “p40*”.

Regarding “SGRVTYLNPVGVKWM [p67, M. leprae ML1419c aa 51-65]”, the “capacity to discriminate PB patients” value is “discriminate individuals with known infection by Mycobacterium leprae (patients PB) from those individuals exposed to said microorganism, but healthy”; the “comparison” value is on record as “higher in PB”; the “IFN-γ response specificity mark (asterisk)” value is reported as “p67*”.

As to “THAFDLVLSSHLLFT [p57, M. leprae ML0308 aa 139-153]”, the “IFN-γ responses in groups TB and EC” value is “induced responses in individuals in groups TB and EC”.

Regarding “TIEFLWQEGHSAHIE [p72, M. leprae ML1553 proS aa 154-168]”, the “IFN-γ responses in groups TB and EC” value is “induced responses in individuals in groups TB and EC; also recorded: most frequent responses in groups EC or TB”.

For “TRLLTVVVKQRSKAF [p38, M. leprae ML0008c aa 21-35]”, the “IFN-γ response specificity mark (asterisk)” value is “p38*”.

“VGKVQGLLARLLTLP [p76, M. leprae ML2498 aa 75-89]”: the “IFN-γ response specificity mark (asterisk)” value is recorded as “p76*”.

With “VKAVVDDVNAILLTGR [p74, M. leprae ML1915 aa 89-104]”, the “IFN-γ response specificity mark (asterisk)” value was “p74*”.

Turning to “VYLYNYLLAETSHVL [p86, M. leprae ML0840c aa 287-301]”, the “IFN-γ response specificity mark (asterisk)” value is “p86*”.

Consider “YGQVVRDVENTLRYL [p80, M. leprae ML0126 aa 125-139]”, for which the “IFN-γ response specificity mark (asterisk)” value is recorded as “p80*”.
